The record followed here is ChEMBL document CHEMBL1201862, “PubChem BioAssay data set” (2004).

Among the test systems are HCC 2998; HL-60; HT-29; Hs-578T; LOX IMVI; MCF7; Malme-3M; NCI-H23; NCI-H460; OVCAR-3; PC-3; SF-539; SK-MEL-28; SK-MEL-2; SNB-75; SW-620; UO-31; ACHN; HOP-62; SF-295.
Assay in all cases: NCI tumour cell line growth inhibition, 48 h

SMILES strings stand for the structures.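 1) Cells in 96-well plates. 2) Compound, 48 h, 5 concentrations. 3) Linear interpolation between surrounding doses. 4) Unreached endpoint = highest concentration. The concentration for 50% growth inhibition is given as GI50.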 Activity calls are given as the source filed them. Cut-off read from the data, not from the text of the source: active = GI50 up to about 1.1 µM and inactive = higher.

With `CSc1c(C#N)c(O)n(-c2ccc(Cl)cc2)c(=O)c1C#N`, the GI50 in the assay with HCC 2998 is > 100 µM (inactive); with HL-60 it was 28.1 µM (inactive); with HT-29, > 100 µM (inactive); with Hs-578T, > 100 µM (inactive); in the assay with LOX IMVI it was 14 µM (inactive); with MCF7, 64.6 µM (inactive). For the same compound, the GI50 with Malme-3M is > 100 µM (inactive); with NCI-H23, 91.2 µM (inactive); in the assay with NCI-H460 it was > 100 µM (inactive); in the assay with OVCAR-3, > 100 µM (inactive); in the assay on PC-3 it was > 100 µM (inactive); with SF-539, > 100 µM (inactive). For the same compound, the GI50 was > 100 µM (inactive) in the assay with SK-MEL-28; > 100 µM (inactive) with SK-MEL-2; > 100 µM (inactive) in the assay on SNB-75; 61 µM (inactive) with SW-620; 72.9 µM (inactive) in the assay with UO-31.

`CN(C)CCCNc1c2c(nc3ccc(Cl)cc13)CCCC2`: the GI50 is 16.1 µM (inactive) in the assay on ACHN; 5.27 µM (inactive) in the assay with HCC 2998; 15.9 µM (inactive) in the assay on HL-60; 12.9 µM (inactive) with HOP-62; 5.47 µM (inactive) in the assay on HT-29; 19.1 µM (inactive) with Hs-578T. Moreover, the GI50 in the assay on LOX IMVI is 11.9 µM (inactive); in the assay with MCF7 it was 12.1 µM (inactive); with Malme-3M it was 15.6 µM (inactive); in the assay with NCI-H23, 15.8 µM (inactive); in the assay with NCI-H460, 9.93 µM (inactive); with OVCAR-3, 14.8 µM (inactive). Also, the GI50 with PC-3 is 13.7 µM (inactive); in the assay with SF-295, 14.5 µM (inactive); in the assay with SF-539, 13.5 µM (inactive); in the assay on SK-MEL-28 it was 18.3 µM (inactive); in the assay on SK-MEL-2, 19.3 µM (inactive); with SNB-75, 15.7 µM (inactive). The GI50 in the assay with SW-620 is 9.75 µM (inactive); in the assay with UO-31, 10 µM (inactive).

Take `OC(CC(O)(C(F)(F)F)C(F)(F)F)C(O)c1ccco1` (stereo not drawn): the GI50 in the assay with ACHN, in the assay on HCC 2998, in the assay with HL-60, in the assay with HOP-62, in the assay with HT-29 and in the assay on Hs-578T was > 10 µM (inactive) in each case. The GI50 in the assay with LOX IMVI, with MCF7, with Malme-3M, in the assay with NCI-H23, in the assay on NCI-H460 and with OVCAR-3 was > 10 µM (inactive) throughout. Further, the GI50 in the assay on PC-3, in the assay on SF-295, with SF-539, with SK-MEL-28, with SK-MEL-2 and in the assay with SNB-75 was > 10 µM (inactive) each time. The GI50 with SW-620 and in the assay with UO-31 was > 10 µM (inactive) each time.

On to `Cc1c2ncccc2c(C)c2c1[nH]c1ccc(O)cc12`, for which the GI50 in the assay on ACHN is 2.02 µM (inactive); in the assay on HCC 2998 it was 6.3 µM (inactive); with HL-60 it was 2.32 µM (inactive); in the assay on HOP-62 it was 1.86 µM (inactive); in the assay with HT-29, 6.87 µM (inactive); with Hs-578T, 1.08 µM (active). Further, the GI50 in the assay with LOX IMVI is 1.71 µM (inactive); with MCF7 it was 2.65 µM (inactive); in the assay with Malme-3M, 8.87 µM (inactive); in the assay on NCI-H23, 6.58 µM (inactive); in the assay on NCI-H460, 1.31 µM (inactive); with OVCAR-3, 6.28 µM (inactive). In addition, the GI50 with PC-3 was 2.76 µM (inactive); with SF-295, 2.48 µM (inactive); in the assay on SF-539, 6.55 µM (inactive); with SK-MEL-28 it was 13.5 µM (inactive); in the assay with SK-MEL-2, 18.5 µM (inactive); in the assay on SNB-75, 4.07 µM (inactive). Besides, the GI50 is 2.8 µM (inactive) in the assay with SW-620 and 3.35 µM (inactive) with UO-31.

Turning to `COC(=O)C1=CON2C3CC4CC(C3)CC(C4)C12C` (stereo not drawn), the GI50 with ACHN, in the assay with HCC 2998, in the assay with HL-60, in the assay with HOP-62, in the assay on HT-29 and in the assay with Hs-578T was > 100 µM (inactive) in each case. Further, the GI50 in the assay on LOX IMVI, with MCF7, with Malme-3M, in the assay with NCI-H23, with NCI-H460 and in the assay on OVCAR-3 was > 100 µM (inactive) throughout. Also, the GI50 with PC-3, in the assay with SF-295, in the assay with SF-539, in the assay on SK-MEL-28, with SK-MEL-2 and with SNB-75 was > 100 µM (inactive) throughout. Besides, the GI50 in the assay on SW-620 and in the assay with UO-31 was > 100 µM (inactive) throughout.

Regarding `Cc1cn(S(=O)(=O)c2ccccc2)c2c(OCc3ccccc3)cc([N+](=O)[O-])cc12`, the GI50 in the assay on ACHN was 61.7 µM (inactive); in the assay on HCC 2998, > 100 µM (inactive); in the assay on HL-60, > 100 µM (inactive); with HOP-62, > 10 µM (inactive); with HT-29, > 100 µM (inactive); with Hs-578T, 26 µM (inactive). Also, the GI50 in the assay on LOX IMVI is > 100 µM (inactive); with MCF7, 32.4 µM (inactive); in the assay on Malme-3M, 17.5 µM (inactive); in the assay with NCI-H23, 96.8 µM (inactive); with NCI-H460, > 100 µM (inactive); with OVCAR-3, > 100 µM (inactive). For the same compound, the GI50 with PC-3 is 32.9 µM (inactive); in the assay on SF-295 it was 27.9 µM (inactive); with SF-539, > 100 µM (inactive); in the assay with SK-MEL-28, 79.8 µM (inactive); in the assay on SK-MEL-2 it was 62.4 µM (inactive); in the assay with SNB-75, 25.3 µM (inactive). In addition, the GI50 with SW-620 is 63 µM (inactive); in the assay with UO-31, 69.3 µM (inactive).

Turning to `CC(OP(=O)(O)O)C(N)C(=O)O` (stereo not drawn), the GI50 with ACHN, in the assay with HCC 2998, in the assay on HL-60, in the assay on HOP-62, with HT-29 and with Hs-578T was > 100 µM (inactive) in each case. In addition, the GI50 in the assay on LOX IMVI, with MCF7, in the assay with Malme-3M, with NCI-H23, in the assay on NCI-H460 and in the assay on OVCAR-3 was > 100 µM (inactive) in each case. The GI50 in the assay on PC-3, in the assay on SF-295, with SF-539, in the assay with SK-MEL-28, with SK-MEL-2 and in the assay on SNB-75 was > 100 µM (inactive) in each case. In addition, the GI50 in the assay with SW-620 and in the assay on UO-31 was > 100 µM (inactive) in each case.

Consider `NC1=CN(Cc2ccccc2)C2=N/C(=C\c3ccco3)C(=O)N12`, for which the GI50 with ACHN, in the assay with HCC 2998, with HL-60, in the assay on HOP-62, in the assay on HT-29 and in the assay on Hs-578T was > 100 µM (inactive) in each case. Besides, the GI50 in the assay with LOX IMVI, in the assay with MCF7, with Malme-3M, in the assay with NCI-H23, in the assay on NCI-H460 and in the assay on OVCAR-3 was > 100 µM (inactive) in each case. Further, the GI50 with PC-3, in the assay with SF-295, with SF-539, in the assay with SK-MEL-28, in the assay with SK-MEL-2 and with SNB-75 was > 100 µM (inactive) in each case. The GI50 in the assay on SW-620 and in the assay with UO-31 was > 100 µM (inactive) in each case.

`C[C@]12CCC(=O)[C@@H](CCC3=CC(=O)C=CC3=O)[C@@H]1CCC2=O`: the GI50 was 16.6 µM (inactive) in the assay with ACHN; 15.3 µM (inactive) in the assay on HCC 2998; 2.7 µM (inactive) in the assay with HL-60; 39.2 µM (inactive) in the assay with HOP-62; 25.6 µM (inactive) with HT-29; 3.97 µM (inactive) in the assay with Hs-578T. Besides, the GI50 with LOX IMVI was 11 µM (inactive); in the assay on MCF7 it was 13.9 µM (inactive); in the assay with Malme-3M it was 16.1 µM (inactive); in the assay on NCI-H23, 12.5 µM (inactive); in the assay on NCI-H460 it was 13.2 µM (inactive); in the assay with OVCAR-3 it was 17.1 µM (inactive). Besides, the GI50 with PC-3 was 12.9 µM (inactive); in the assay on SF-295, 17.8 µM (inactive); in the assay on SF-539, 11.4 µM (inactive); in the assay on SK-MEL-28, 13.2 µM (inactive); with SK-MEL-2 it was 11.7 µM (inactive); in the assay on SNB-75, 5.48 µM (inactive). Moreover, the GI50 in the assay with SW-620 was 18.2 µM (inactive); with UO-31 it was 14.3 µM (inactive).

For `O=C(Nc1ccccc1)c1cc(S(=O)(=O)Nc2n[nH]c(=O)n2-c2ccccc2)c(S)cc1Cl`, the GI50 with HCC 2998, in the assay on HL-60, in the assay on HT-29, in the assay on Hs-578T, in the assay on LOX IMVI and in the assay with MCF7 was > 100 µM (inactive) throughout. Also, the GI50 with Malme-3M, in the assay with NCI-H460, in the assay with OVCAR-3, in the assay on PC-3, in the assay on SF-539 and in the assay with SK-MEL-28 was > 100 µM (inactive) each time. The GI50 in the assay on SK-MEL-2, with SNB-75, in the assay with SW-620 and with UO-31 was > 100 µM (inactive) throughout.
